The text below walks through data of the supplement of paper PMC10307832.

Assay in all cases: relative viability (nuclei count vs DMSO), 5 days (fraction); higher = more cells survive
Compound in assay [1]: Cc1ccc(C(=O)Nc2ccc(CN3CCN(C)CC3)c(C(F)(F)F)c2)cc1C#Cc1cnc2cccnn12 [Ponatinib]
Put shortly:
(§1)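 Cells of lung cancer lines were placed in 1536-well plates and kept overnight at 37 °C. Pinning then delivered five library-drug doses (not always all listed), spaced by √10, onto plates anchored with vehicle, and the cells were left 5 days without changing medium. One step fixed, permeabilised and stained them with Hoechst, and MetaXpress counted nuclei in 4× images. Viability, as a median over plates, is treated-well nuclei divided by vehicle-well nuclei, with acceptance only at control CV below 25% and at least one doubling.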

Compound in assay [2]: Cc1ccc(Nc2nccc(N(C)c3ccc4c(C)n(C)nc4c3)n2)cc1S(N)(=O)=O [Pazopanib]
Put shortly:
as §1

Compound in assay [3]: Cc1ccc(C(=O)Nc2ccc(CN3CCN(C)CC3)c(C(F)(F)F)c2)cc1C#Cc1cnc2cccnn12 [Ponatinib] + CC(=O)Nc1cccc(-n2c(=O)n(C3CC3)c(=O)c3c(Nc4ccc(I)cc4F)n(C)c(=O)c(C)c32)c1 [Trametinib] (partner 0.02 µM)
In short, it runs like this:
(§2)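 Cells from lung cancer lines were seeded into 1536-well plates and, one day later, dosed by pin tool. Treatments were either a single drug or a fixed dose of an anchor drug with five library-drug doses (not always all listed) in √10 steps. After 5 days, nuclei were stained in a one-step fixation (final 0.05% Triton X-100, 1% formaldehyde, 1 ug/ml Hoechst) and counted on 4× images, and relative viability is the treated-to-vehicle nuclei ratio, as the median of duplicate plates.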

Compound in assay [4]: Cc1ccc(Nc2nccc(N(C)c3ccc4c(C)n(C)nc4c3)n2)cc1S(N)(=O)=O [Pazopanib] + CC1(C)CCC(c2ccc(Cl)cc2)=C(CN2CCN(c3ccc(C(=O)NS(=O)(=O)c4ccc(N[C@H](CCN5CCOCC5)CSc5ccccc5)c(S(=O)(=O)C(F)(F)F)c4)cc3)CC2)C1 [Navitoclax] (partner 0.5 µM)
Put shortly: as §2

Consider HARA, for which the relative viability in assay [1] (0.002 µM) turned out to be 0.844; in assay [1] (0.006325 µM), 0.972; in assay [1] (0.06325 µM) it was 0.938; in assay [1] (0.2 µM), 0.914; in assay [2] (0.01 µM), 0.957; in assay [2] (0.03162 µM), 0.978. For the same cell line, the relative viability in assay [2] (0.1 µM) came out at 1; in assay [2] (0.3162 µM) it was 1.04; in assay [2] (1 µM), 1.03; in assay [3] (first compound 0.002 µM) it was 0.633; in assay [3] (first compound 0.006325 µM) it was 0.581; in assay [3] (first compound 0.06325 µM), 0.633. The relative viability in assay [3] (first compound 0.2 µM) was 0.443; in assay [4] (first compound 0.01 µM), 1.2; in assay [4] (first compound 0.03162 µM) it was 1.03; in assay [4] (first compound 0.1 µM) it was 1.13; in assay [4] (first compound 0.3162 µM), 1.15; in assay [4] (first compound 1 µM) it was 1.2.

Take NCI-H647: the relative viability was 0.818 in assay [1] (0.002 µM); 1.05 in assay [1] (0.006325 µM); 1.09 in assay [1] (0.06325 µM); 0.769 in assay [1] (0.2 µM); 0.885 in assay [2] (0.01 µM); 1.08 in assay [2] (0.03162 µM). Also, the relative viability was determined as 0.895 in assay [2] (0.1 µM); 0.956 in assay [2] (0.3162 µM); 1.13 in assay [2] (1 µM); 0.399 in assay [3] (first compound 0.002 µM); 0.5 in assay [3] (first compound 0.006325 µM); 0.458 in assay [3] (first compound 0.06325 µM). Also, the relative viability turned out to be 0.296 in assay [3] (first compound 0.2 µM); 1.14 in assay [4] (first compound 0.01 µM); 1.08 in assay [4] (first compound 0.03162 µM); 1.21 in assay [4] (first compound 0.1 µM); 1.17 in assay [4] (first compound 0.3162 µM); 1.16 in assay [4] (first compound 1 µM).

Turning to NCI-H23, the relative viability in assay [1] (0.002 µM) amounted to 0.862; in assay [1] (0.006325 µM) it was 1; in assay [1] (0.06325 µM), 1.15; in assay [1] (0.2 µM), 0.833; in assay [2] (0.01 µM), 0.858; in assay [2] (0.03162 µM), 1.04. For the same cell line, the relative viability is 1.03 in assay [2] (0.1 µM); 1.02 in assay [2] (0.3162 µM); 1.29 in assay [2] (1 µM); 0.376 in assay [3] (first compound 0.002 µM); 0.415 in assay [3] (first compound 0.006325 µM); 0.364 in assay [3] (first compound 0.06325 µM). Further, the relative viability in assay [3] (first compound 0.2 µM) amounted to 0.348; in assay [4] (first compound 0.01 µM) it was 0.899; in assay [4] (first compound 0.03162 µM), 0.843; in assay [4] (first compound 0.1 µM), 1.16; in assay [4] (first compound 0.3162 µM), 1.02; in assay [4] (first compound 1 µM), 1.06.

Take LCLC-97TM1: the relative viability amounted to 0.925 in assay [1] (0.002 µM); 0.996 in assay [1] (0.006325 µM); 0.961 in assay [1] (0.06325 µM); 0.892 in assay [1] (0.2 µM); 1 in assay [2] (0.03162 µM); 0.912 in assay [2] (0.1 µM). For the same cell line, the relative viability in assay [2] (0.3162 µM) worked out at 1.02; in assay [2] (1 µM) it was 1.04; in assay [3] (first compound 0.002 µM), 0.186; in assay [3] (first compound 0.006325 µM) it was 0.208; in assay [3] (first compound 0.06325 µM), 0.168; in assay [3] (first compound 0.2 µM), 0.162. For the same cell line, the relative viability turned out to be 0.365 in assay [4] (first compound 0.03162 µM), 0.427 in assay [4] (first compound 0.1 µM), 0.547 in assay [4] (first compound 0.3162 µM) and 0.655 in assay [4] (first compound 1 µM).

Turning to EPLC-272H, the relative viability in assay [1] (0.002 µM) was found to be 0.818; in assay [1] (0.006325 µM) it was 1.01; in assay [1] (0.06325 µM), 1.14; in assay [1] (0.2 µM), 0.801; in assay [2] (0.01 µM), 0.706; in assay [2] (0.03162 µM), 0.919. Besides, the relative viability in assay [2] (0.1 µM) amounted to 0.962; in assay [2] (0.3162 µM), 1.07; in assay [2] (1 µM) it was 0.92; in assay [3] (first compound 0.002 µM) it was 0.271; in assay [3] (first compound 0.006325 µM), 0.309; in assay [3] (first compound 0.06325 µM), 0.345. The relative viability was 0.22 in assay [3] (first compound 0.2 µM); 1.09 in assay [4] (first compound 0.01 µM); 1.09 in assay [4] (first compound 0.03162 µM); 1.21 in assay [4] (first compound 0.1 µM); 1.16 in assay [4] (first compound 0.3162 µM); 1.1 in assay [4] (first compound 1 µM).

Regarding NCI-H1915, the relative viability stood at 0.906 in assay [1] (0.002 µM); 1 in assay [1] (0.006325 µM); 0.986 in assay [1] (0.06325 µM); 0.971 in assay [1] (0.2 µM); 0.915 in assay [2] (0.01 µM); 1.02 in assay [2] (0.03162 µM). Also, the relative viability in assay [2] (0.1 µM) came to 0.995; in assay [2] (0.3162 µM), 0.961; in assay [2] (1 µM), 0.894; in assay [3] (first compound 0.002 µM) it was 0.303; in assay [3] (first compound 0.006325 µM), 0.321; in assay [3] (first compound 0.06325 µM) it was 0.288. Further, the relative viability in assay [3] (first compound 0.2 µM) is 0.24; in assay [4] (first compound 0.01 µM), 0.821; in assay [4] (first compound 0.03162 µM) it was 0.782; in assay [4] (first compound 0.1 µM), 0.78; in assay [4] (first compound 0.3162 µM) it was 0.768; in assay [4] (first compound 1 µM), 0.729.
